Experimental findings from patent US5760036A, “Aminediol protease inhibitors” (E. R. Squibb & Sons, Inc., priority 1995, dated 1998) are described below.

The first experiment deals with T1, HIV protease (Human immunodeficiency virus type 1 group M subtype B, UniProt P04585).
T1 construct: and purified protease
Kind of experiment: HIV Protease Assay. It is filed as biochemical. The following applies: 10 μM inhibitor, 4% DMSO, 450 μM substrate, pH 5.5, 30 minutes at 37° C., RP-HPLC. The procedure: An HIV protease standard assay was performed in a 60 μl reaction medium containing 50 mM sodium acetate, pH 5.5, 100 μg/ml bovine serum albumen,450 μM substrate (H2 N-Val-Ser-Gln-Asn-(β-naphthyl-alanine)-Pro-Val-Ile-OH), and purified protease. The reaction medium was incubated for 30 minutes at 37° C., quenched by the addition of 140 μl 5% H3 PO4, then analyzed by reverse phase HPLC using UV220 detection. In a typical control assay, 7% of the substrate was hydrolyzed. Aminediol inhibitors of the present invention, listed in the following Table 1, were then employed in the assay, for which purpose they were prepared as a […] solution in DMSO, then diluted to 30 μM with 50 mM sodium acetate/bovine serum albumen. This working stock was then diluted three-fold into the protease reaction medium, for a final concentration of 10 μM inhibitor and 4% DMSO.
As for `CC(C)(C)OC(=O)N[C@@H](Cc1ccccc1)[C@H](O)CNC[C@@H](O)[C@H](Cc1ccccc1)NC(=O)C(C)(O)C(F)(F)F` (single isomer, unassigned; isomer b) [Compound 294, [1S-[1R*,2S*(2S*,3R*)]]-[2-Hydroxy-3-[2-hydroxy-1-oxo-2-(trifluoromethyl)propyl]amino]-4-phenylbutyl]amino]-1-(phenylmethyl)propyl]carbamic acid, 1,1-dimethylethylester (isomer B)], the “HIV Protease % Inhibition at 10 μM” value came to 89%.
Still for that read-out and setting: as for `CC(C)(C)OC(=O)N[C@@H](Cc1ccccc1)[C@H](O)CNC[C@@H](O)[C@H](Cc1ccccc1)NC(=O)C(C)(O)c1ccccn1` (single isomer, unassigned; isomer b) [Compound 382, [1S-[1R*,2S*(2S*, 3R*)]]-[2-Hydroxy-3-[[2-hydroxy-3-[[2-hydroxy-1-oxo-2-(2-pyridinyl)propyl]amino]-4-phenylbutyl]amino]-1-(phenylmethyl)propyl]carbamic acid, 1.1-dimethylethyl ester, isomer B], the figure is 89%; as for `CC(C)(C)OC(=O)N[C@@H](Cc1ccccc1)[C@H](O)CNC[C@@H](O)[C@H](Cc1ccccc1)NC(=O)C(O)(CO)C(C)(C)C` (single isomer, unassigned; isomer b) [Compound 367, [1S-[1R*,2S*(2S*,3R*)]]-[3-[[3-[[2-Hydroxy-2-(hydroxymethyl)-3.3-dimethyl-l-oxobutyl]amino]-2-hydroxy-4-phenylbutyl]amino]-2-hydroxy-1-(phenylmethyl)propyl]carbamic acid. 1.1-dimethylethyl ester, isomer B], 50%.

Still in this experiment, the particulars now being: pH 5.5, 10 μM inhibitor, 4% DMSO, 450 μM substrate, pH 5.5, 30 minutes at 37° C., RP-HPLC; read-out: HIV Protease % Inhibition at 10 μM.
As for `C=Cc1ccccc1C[C@H](NC(=O)OC(C)(C)C)[C@H](O)CNC[C@@H](O)[C@H](Cc1ccccc1)NC(=O)OC(C)(C)C` [Compound 370, [1S-[1R*,2S*(2S*, 3R*)]]-[3-[[3-[[(1,1-Dimethylethoxy)carbonyl]amino]-2-hydroxy-4-(2-ethenylphenyl)butyl]amino]-2-hydroxy-1-(phenylmethyl)propxyl]carbamic acid, 1.1-dimethylethyl ester], the inhibition at 10 µM was found to be 96%.
Consider `CC(C)(C)OC(=O)N[C@@H](Cc1ccccc1)[C@H](O)CNC[C@@H](O)[C@H](Cc1ccccc1)NC(=O)C(C)(C)CCO` [Compound 291, [1S-[1R*,2S*(2S*,3R*)]]-[2-Hydroxy-3-[[2-hydroxy-3-[(4-hydroxy-2,2-dimethyl-1-oxobutyl)amino]-4-phenylbutyl]amino]-1-(phenylmethyl)propyl]carbamic acid, 1,1-dimethylethyl ester], for which the inhibition at 10 µM turned out to be 73%.
Same read-out and setting: next, `CC(C)(C)OC(=O)N[C@@H](Cc1ccccc1)[C@H](O)CNC[C@@H](O)[C@H](Cc1ccccc1)NC(=O)OC1(C)CCCC1O` (stereo partly drawn) [Compound 379, [1S-(1R*,2S*) (trans)]-[Iminobis[2-hydroxy-1-(phenylmethyl)-3,1-propanediyl]]bis[carbamic acid], 1,1-dimethylethyl 2-hydroxy-1-methylcyclopentyl ester]: 98%; `CC(C)(C)OC(=O)N[C@@H](Cc1ccccc1)[C@H](O)CNC[C@@H](O)[C@H](Cc1ccccc1)NC(=O)[C@H](CCCCN)NC(=O)OCc1ccccc1` [Compound 89, [S-[1R*,2S*(2S*,3R*)[[-N-[3-[[3-[[(1,1-Dimethylethoxy)carbonyl]amino]-2-hydroxy-4-phenylbutyl]amino]-2-hydroxy-1-(phenylmethyl)-propyl]-N2-[(phenylmethoxy)carbonyl]-L-lysinamide]: 23%.
Regarding `CC(C)(C)OC(=O)NC[C@@H](O)[C@@H](Cc1ccccc1)NC[C@@H](O)[C@H](Cc1ccccc1)NC(=O)OC(C)(C)C` [Compound 190, [2R-[2R*,3R*(2R*,3S*)]]-[3-[[3-[[(1,1-Dimethylethoxy)carbonyl]amino]-2-hydroxy-4-phenyl-butyl]amino]-2-hydroxy-4-phenylbutyl]carbamic acid, 1,1-dimethylethyl ester], the inhibition at 10 µM was below 16%.
Regarding `CC(C)(C)OC(=O)N[C@@H](Cc1ccccc1)[C@H](O)CNC[C@@H](O)[C@H](Cc1ccccc1)NC(=O)C1(O)CCCCC1(C)C` (single isomer, unassigned; isomer a) [Compound 361, [1S-[1R*,2S*(2S*,3R*)]]-[3-[[3-[[2 , 2-Dimethyl-1-hydroxycyclohexyl)carbonyl]amino]-2-hydroxy-4-phenylbutyl]amino]-2-hydroxy-1-(phenylmethyl) propyl]carbamic acid, 1,1-dimethylethyl ester, isomer A], the inhibition at 10 µM turned out to be 97%.
For `CC(C)(C)OC(=O)N[C@@H](Cc1ccccc1)[C@H](O)CNC[C@@H](O)[C@H](Cc1ccccc1)NC(=O)[C@@H](NC(=O)OCc1ccccc1)c1ccccc1` [Compound 94, [1S-[1R* [1R*,2S* (2S*,3R*)]]]-[2-[[3-[[3-[[(1,1-Dimethylethoxy)carbonyl]amino]-2-hydroxy-4-phenylbutyl]amino]-2-hydroxy-1-(phenylmethyl)propyl]amino]-2-oxo-1-phenylethyl]carbamic acid, phenylmethyl ester], the inhibition at 10 µM was in the range of 80 to 99%.
Still for that read-out and setting: as for `CC(C)(C)OC(=O)N[C@@H](Cc1ccccc1)[C@H](O)CN[C@@H](Cc1ccccc1)C(O)CNC(=O)OCc1ccccc1` (stereo partly drawn) [Compound 186, [3S-[3R*,2(R*,S*) [2S*,3R*)]-3-[[3-(1,1-Dimethylethoxy)carbonyl]amino]-2-hydroxy-4-phenylbutyl]amino]-2-hydroxy-4-phenylbuty 1]carbamic acid, phenylmethyl ester], the figure is 0%; as for `CC(C)[C@H](NC(=O)OCc1ccccc1)C(=O)N[C@@H](Cc1ccccc1)[C@@H](O)CNC[C@@H](O)[C@H](Cc1ccccc1)NC(=O)OC(C)(C)C` [Compound 115, [S-[1R*,2R*(2S*.3R*)]-N-[3-[[3-[[(1,1-Dimethylethoxy)carbonyl]amino]-2-hydroxy-4-phenylbutyl]amino]-2-hydroxy-1-phenylmethyl)propyl]-N^2-[(phenylmethoxy)-carbonyl]-L-valinamide], 58%; as for `COC(=O)N[C@@H](C(=O)N[C@@H](Cc1ccccc1)[C@H](O)CNC[C@@H](O)[C@H](Cc1ccccc1)NC(=O)OC(C)(C)C)C(C)(C)C` (relative stereo) [Compound 340, [1S*,2R*(2R*,3S*)]-N-[3-[[3-[[(1,1-Dimethylethoxy)carbonyl]amino]-2-hydroxy-4-phenylbutyl]amino]-2-hydroxy-1-(phenylmethyl)propyl]-N^2-(2-methoxycarbonyl)-3-methyl-D-valinamide], 56%.
`CC(C)(C)OC(=O)N[C@@H](Cc1ccccc1)[C@H](O)CNC[C@@H](O)[C@H](Cc1ccccc1)N1CC(C)(C)OC1=O` [Compound 140, [1S-[1R*,2S*(2S*,3R*)]]-[3-[[3-(5,5-Dimethyl-2-oxo-3-oxazolidinyl)-2-hydroxy-4-phenylbutyl]amino]-2-hydroxy-1-(phenylmethyl)-propyl]carbamic acid, 1,1-dimethylethyl ester]: the inhibition at 10 µM was 61%.
On the same count and under the same terms, next, `CC(C)(C)OC(=O)N[C@@H](Cc1ccccc1)[C@H](O)CNC[C@@H](O)[C@H](Cc1ccccc1)NC(=O)OCc1ncc[nH]1` [Compound 268, [R-(R*,S*)]-[Iminobis[2-hydroxy-1-(phenylmethyl)-3,1-propanediyl)]biscarbamic acid, (1H-imidazol-2-yl)-methyl 1,1-dimethylethyl ester]: 94%; `CN(Cc1ccccc1)C(=O)N[C@@H](Cc1ccccc1)[C@H](O)CNC[C@@H](O)[C@H](Cc1ccccc1)NC(=O)OC(C)(C)C` [Compound 69, [1S-[1R*,2S*(2S*,3R*)]]-2-Hydrox3-[[2-hydroxy-3-[[[methyl(phenylmethyl)-amino]carbonyl]amino]-4-phenylbutyl]amino]-1-(phenylmethyl)propyl]carbamic acid, 1,1-dimethylethyl ester]: 11%; `CC(C)[C@H](NC(=O)OCc1ccccc1)C(=O)N[C@@H](Cc1ccccc1)[C@@H](O)CNC[C@H](O)[C@H](Cc1ccccc1)NC(=O)[C@@H](NC(=O)OCc1ccccc1)C(C)C` [Compound 119, [S-(1R*,2R*)]-N,N'-[Iminobisr[2-hydroxy-1-(phenylmethyl)-3,1-propanediyl]]bis[N^2-[phenylmethyloxy)carbonyl]-L-valinamidel]: 10%.
Consider `CC(C)(C)OC(=O)N[C@@H](Cc1ccccc1)[C@H](O)CNC[C@@H](O)[C@H](Cc1ccccc1)NC(=O)[C@H](O)c1ccccc1` [Compound 377, [1S-[1R*,2S*[2S*, 3R*(S*)]]]-[3-[[3-[2-Hydroxy-1-oxo-2-phenylethyl)amino]-2-hydroxy-4-phenylbutyl]amino]-2-hydroxy-1-(phenylmethyl)propyl]carbamic acid, 1-dimethylethyl ester], for which the inhibition at 10 µM came to 95%.

The experiment is the same for the next values; noted with them: pH 5.5, read-out: HIV Protease % Inhibition at 10 μM.
As for `CC(C)(C)COC(=O)N[C@@H](Cc1ccccc1)[C@H](O)CNC[C@@H](O)[C@H](Cc1ccccc1)NC(=O)OCC(C)(C)C` [Compound 139, [1S-(1R*,2S*)]-[Iminobis[2-hydroxy-1-(phenylmethyl)-3,1-propanediyl]]biscarbamic acid, bis(2,2-dimethylpropyl)ester], the inhibition at 10 µM stood at 73%.
